Measurements taken from patent publication US11745001B2, “Therapeutic bandage” (University of Connecticut, priority 2020, dated 2023).

From the text: FIG. 4A illustrates a microneedle base 44 showing the hollow channel 50. FIG. 4B illustrates the microneedle base 44 coupled to the rapid-dissolving tips 40, which include tattoo ink. In one embodiment, the therapeutic bandage 10 may be producing the microneedles 26 and then coupling the microneedles 26 to the bandage matrix 30. In some embodiments, the microneedles 26 may be integrally formed with a portion of the bandage matrix 30. The microneedles are produced by forming the base 44, with the microchannel 50, and loading the base […] with the second immunomodulatory compound. The tip 40 is then produced and loaded with the first immunomodulatory compound. The tip 40 is then coupled to the base 44 to seal the microchannel […]. To test the mechanical strength of the microneedles 26, the tips 40 were loaded with insoluble tattoo ink (FIG. 4B). The microneedles 26 were then applied to cultured human skin explants using a 1 Newton application force. […] FIG. 4E illustrates a longitudinal section of explanted human skin showing spacing of microneedle deposition in the dermal layer. The kinetics of drug release were then measured using epifluorescence microscopy and two fluorescent dyes.

CCN(CC)c1ccc2c(-c3ccc(S(=O)(=O)O)cc3S(=O)(=O)[O-])c3ccc(=[N+](CC)CC)cc-3oc2c1 [sulforhodamine B]
diffusion radius compared with the tip dye: approximately equal diffusion radius | release of red fluorescence from the microneedle base: after about one hour | visibility of dye: barely visible
